The target in the assay is T1, human NaV1.3 (Homo sapiens, UniProt Q9NY46).
T1 construct: expressed in transfected cells; host or cells: HEK293
T1 sequence (Q9NY46 whole entry): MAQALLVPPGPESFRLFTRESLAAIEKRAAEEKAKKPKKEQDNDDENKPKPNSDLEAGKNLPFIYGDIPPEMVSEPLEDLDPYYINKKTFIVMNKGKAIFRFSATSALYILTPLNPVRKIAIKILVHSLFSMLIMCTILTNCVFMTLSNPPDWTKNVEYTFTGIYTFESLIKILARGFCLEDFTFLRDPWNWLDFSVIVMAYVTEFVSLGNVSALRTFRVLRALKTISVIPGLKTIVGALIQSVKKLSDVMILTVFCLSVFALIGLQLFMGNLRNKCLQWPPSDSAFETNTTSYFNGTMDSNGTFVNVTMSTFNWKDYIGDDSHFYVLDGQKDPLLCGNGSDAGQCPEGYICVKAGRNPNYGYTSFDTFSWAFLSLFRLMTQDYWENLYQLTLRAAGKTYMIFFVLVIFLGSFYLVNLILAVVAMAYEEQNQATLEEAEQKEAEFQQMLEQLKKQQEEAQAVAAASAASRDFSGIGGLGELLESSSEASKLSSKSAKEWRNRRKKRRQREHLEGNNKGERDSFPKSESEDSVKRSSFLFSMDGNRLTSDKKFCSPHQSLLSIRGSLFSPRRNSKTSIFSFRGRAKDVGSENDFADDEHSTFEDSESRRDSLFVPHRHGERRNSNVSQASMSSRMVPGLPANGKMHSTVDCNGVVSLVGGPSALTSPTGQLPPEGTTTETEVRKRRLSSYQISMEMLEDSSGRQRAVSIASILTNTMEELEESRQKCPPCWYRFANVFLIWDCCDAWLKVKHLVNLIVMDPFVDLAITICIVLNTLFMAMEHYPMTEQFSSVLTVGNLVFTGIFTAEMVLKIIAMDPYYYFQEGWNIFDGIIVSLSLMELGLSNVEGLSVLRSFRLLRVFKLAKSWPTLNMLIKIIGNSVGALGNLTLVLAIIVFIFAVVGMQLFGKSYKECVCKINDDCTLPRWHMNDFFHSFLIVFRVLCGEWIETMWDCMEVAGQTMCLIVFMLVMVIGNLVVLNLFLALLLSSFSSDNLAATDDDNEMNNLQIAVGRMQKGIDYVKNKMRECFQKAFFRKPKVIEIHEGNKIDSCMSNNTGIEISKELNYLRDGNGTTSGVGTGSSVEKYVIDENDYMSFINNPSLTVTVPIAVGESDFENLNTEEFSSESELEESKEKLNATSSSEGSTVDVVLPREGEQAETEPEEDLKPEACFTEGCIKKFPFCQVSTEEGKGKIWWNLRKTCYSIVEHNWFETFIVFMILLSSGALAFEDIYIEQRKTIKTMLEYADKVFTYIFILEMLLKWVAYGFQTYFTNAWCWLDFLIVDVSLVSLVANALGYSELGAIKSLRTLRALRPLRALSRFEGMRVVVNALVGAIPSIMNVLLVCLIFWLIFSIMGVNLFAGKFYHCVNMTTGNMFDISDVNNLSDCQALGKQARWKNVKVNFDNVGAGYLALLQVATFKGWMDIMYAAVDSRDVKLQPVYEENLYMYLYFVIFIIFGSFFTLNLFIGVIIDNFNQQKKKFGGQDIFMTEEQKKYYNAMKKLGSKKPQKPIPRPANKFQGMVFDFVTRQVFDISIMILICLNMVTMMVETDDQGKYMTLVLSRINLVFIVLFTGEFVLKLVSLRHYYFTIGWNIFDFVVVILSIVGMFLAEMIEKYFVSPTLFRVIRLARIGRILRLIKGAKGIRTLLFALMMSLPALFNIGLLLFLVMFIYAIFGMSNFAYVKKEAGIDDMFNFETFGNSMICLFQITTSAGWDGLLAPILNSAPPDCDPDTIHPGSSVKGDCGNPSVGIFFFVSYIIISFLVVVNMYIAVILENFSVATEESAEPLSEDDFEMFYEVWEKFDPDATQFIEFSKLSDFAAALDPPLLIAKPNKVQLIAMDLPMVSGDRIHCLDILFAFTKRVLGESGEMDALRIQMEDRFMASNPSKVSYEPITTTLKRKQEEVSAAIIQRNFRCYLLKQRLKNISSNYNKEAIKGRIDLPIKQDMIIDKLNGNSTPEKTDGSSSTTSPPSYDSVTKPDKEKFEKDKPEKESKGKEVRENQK
The assay is described as follows: FRET assay (EFS, FDSS) on HEK293 cells expressing human NaV1.3 channels. The settings on record: FRET assay, HEK293 cells expressing human NaV1.3; read-out: IC50 against Nav1.3. The class given is cell-based. On the procedure: This screen was used to determine the effects of compounds on human NaV1.3, human Nav1.7, and human Nav1.5 channels, utilising electrical field stimulation (EFS) system in 96-well plate format on FDSS (Hamamatsu Photonics) platform. The change of membrane potential was monitored with FRET dye pair, oxonol (DiSBAC2(3)) and coumarin (CC2-DMPE).
Each HEK293 cells expressing human NaV1.3 channels and HEK293 cells expressing human NaV1.5 channels were grown in T225 flasks, in a 5% CO2 humidified incubator to about 80% confluence. Media composition consisted of Dulbecco's Modified Eagle Medium (high glucose), 10% FCS, 100 units/ml Penicillin, 100 microgram/ml Streptomycin and 500 microgram/ml Geneticine.
Protocol: • Seeded each cell lines (1×10^5 cells/well) into poly-D-lysine coated 96-well plates prior to experimentation. • Incubated at 37° C. in 5% CO2 for 24 hours. • Washed each well with assay buffer (140 mM NaCl, 4.5 mM KCl, 10 mM D-Glucose, 2 mM CaCl2, 1 mM MgCl2, 10 mM HEPES, pH 7.4 adjusted with NaOH) twice. • Added 1st loading solution containing 10 microM CC2-DMPE and 0.06% Pluronic F-127 in assay buffer. • Incubated the plate at room temperature in dark for 1 hour. • Removed 1st loading solution and added 2nd loading solution containing 15 microM DiSBAC2(3), 0.555 mM VABSC-1 and 0.004% Pluronic F-127 in assay buffer. • Placed the plate under the dark at room temperature for 25 minutes. • Added compound solutions into the assay plate. • Set the assay plate in FDSS and placed an EFS device on the plate. • Measured EFS-induced fluorescent response by FDSS.
The data were analyzed and reported as normalized ratios of intensities measured at […]. The process of calculating these ratios was performed as follows:
[formula] This analysis was performed using a computerized specific program designed for FDSS generated data. Fluorescence ratio values were plotted using XLfit to determine an IC50 value for each compound.
As for `CC(C)COc1cc(N2CCN(C(=O)C(O)Cc3ccccc3)CC2)ncn1` (stereo in doubt) [Example 5, (R)-2-hydroxy-1-(4-(6-isobutoxypyrimidin-4-yl)piperazin-1-yl)-3-phenylpropan-1-one], the IC50 was below 3 µM. The same measure for `CC(C)COc1cc(N2CCN(C(=O)C(NC(=O)OC(C)(C)C)c3ccccc3)CC2)ncn1` (stereo in doubt) [Example 11, (R)-tert-butyl (2-(4-(6-isobutoxypyrimidin-4-yl)piperazin-1-yl)-2-oxo-1-phenylethyl)carbamate]: below 3 µM; for `Cc1ccc(C(=O)N2CCN(c3cc(OC4CCCC4)ncn3)CC2)cc1F` [Example 7]: below 3 µM. As to `CC(C)COc1cc(N2CCN(C(=O)c3cccc4[nH]ccc34)CC2)ncn1` [Example 9, (1H-indol-4-yl)(4-(6-isobutoxypyrimidin-4-yl)piperazin-1-yl)methanone], the IC50 is below 3 µM. To `CC(C)COc1cc(N2CCN(C(=O)c3cc(C(F)(F)F)nn3C)CC2)ncn1` [Example 14, (4-(6-isobutoxypyrimidin-4-yl)piperazin-1-yl)(1-methyl-3-(trifluoromethyl)-1H-pyrazol-5-yl)methanone] belongs below 3 µM; to `Cc1ccc(C(=O)N2CCN(c3cc(OC4CCC4)ncn3)CC2)cc1F` [Example 16], below 3 µM; to `CC(C)COc1cc(N2CCN(C(=O)c3ccc4ccccc4n3)CC2)ncn1` [Example 18, (4-(6-isobutoxypyrimidin-4-yl)piperazin-1-yl)(quinolin-2-yl)methanone], below 3 µM. Consider `CC(C)COc1cc(N2CCN(C(=O)c3nc4ccccc4n3C)CC2)ncn1` [Example 23, (4-(6-isobutoxypyrimidin-4-yl)piperazin-1-yl)(1-methyl-1H-benzo[d]imidazol-2-yl)methanone], for which the IC50 is below 3 µM.

With `Cn1nc(C(=O)N2CCN(c3cc(OCC(F)(F)F)ncn3)CC2)cc1C(F)(F)F` [Example 29, (1-methyl-5-(trifluoromethyl)-1H-pyrazol-3-yl)(4-(6-(2,2,2-trifluoroethoxy)pyrimidin-4-yl)piperazin-1-yl)methanone], the 50% inhibitory concentration (IC50) was below 3 µM.

As for `Cn1nc(C(=O)N2CCN(c3cc(OCC(F)(F)F)ncn3)CC2)c2ccccc21` [Example 30, (1-methyl-1H-indazol-3-yl)(4-(6-(2,2,2-trifluoroethoxy)pyrimidin-4-yl)piperazin-1-yl)methanone], the IC50 is below 3 µM. `CC(C)COc1cc(N2CCN(C(=O)c3cnc4ccccc4n3)CC2)ncn1` [Example 34, (4-(6-isobutoxypyrimidin-4-yl)piperazin-1-yl)(quinoxalin-2-yl)methanone]: the IC50 was below 3 µM. For `Cn1nc(C(=O)N2CCN(c3cc(OC4CCC4)ncn3)CC2)c2ccccc21` [Example 38, (4-(6-cyclobutoxypyrimidin-4-yl)piperazin-1-yl)(1-methyl-1H-indazol-3-yl)methanone], the IC50 is below 3 µM. On to `CC(C)COc1cc(N2CCN(C(=O)C(C)Oc3ccc(F)cc3)CC2)ncn1` (centres unmarked) [Example 48, 2-(4-fluorophenoxy)-1-(4-(6-isobutoxypyrimidin-4-yl)piperazin-1-yl)propan-1-one], for which the IC50 is below 3 µM. The same measure for `CC(C)COc1cc(N2CCN(C(=O)c3cccc(N4CCCC4)n3)CC2)ncn1` [Example 52, (4-(6-isobutoxypyrimidin-4-yl)piperazin-1-yl)(6-(pyrrolidin-1-yl)pyridin-2-yl)methanone]: below 3 µM; for `CC(C)COc1cc(N2CCN(C(=O)OCc3ccccc3)CC2)ncn1` [Example 53, benzyl 4-(6-isobutoxypyrimidin-4-yl)piperazine-1-carboxylate]: below 3 µM. To `CC(C)COc1cc(N2CCN(C(=O)CN3C(=O)COc4ccccc43)CC2)ncn1` [Example 57, 4-(2-(4-(6-isobutoxypyrimidin-4-yl)piperazin-1-yl)-2-oxoethyl)-2H-benzo[b][1,4]oxazin-3(4H)-one] belongs below 3 µM.

As to `CC(C)COc1cc(N2CCN(C(=O)Cc3noc4ccccc34)CC2)ncn1` [Example 58, 2-(benzo[d]isoxazol-3-yl)-1-(4-(6-isobutoxypyrimidin-4-yl)piperazin-1-yl)ethanone], the IC50 is below 3 µM. The same measure for `CC(C)COc1cc(N2CCN(C(=O)CCN3Cc4ccccc4C3=O)CC2)ncn1` [Example 61, 2-(3-(4-(6-isobutoxypyrimidin-4-yl)piperazin-1-yl)-3-oxopropyl)isoindolin-1-one]: below 3 µM.

Turning to `COCCn1c(C(=O)N2CCN(c3cc(OCC(C)C)ncn3)CC2)cc2ccccc21` [Example 62, (4-(6-isobutoxypyrimidin-4-yl)piperazin-1-yl)(1-(2-methoxyethyl)-1H-indol-2-yl)methanone], the IC50 is below 3 µM.

With `COc1cc(C(=O)N2CCN(c3cc(OCC(F)(F)F)ncn3)CC2)nc2ccccc12` [Example 63, (4-methoxyquinolin-2-yl)(4-(6-(2,2,2-trifluoroethoxy)pyrimidin-4-yl)piperazin-1-yl)methanone], the IC50 is below 3 µM.

Turning to `O=C(c1n[nH]c2ccccc12)N1CCN(c2cc(OCC(F)(F)F)ncn2)CC1` [Example 68, (1H-indazol-3-yl)(4-(6-(2,2,2-trifluoroethoxy)pyrimidin-4-yl)piperazin-1-yl)methanone], the IC50 is below 3 µM. Take `COc1cccc(C(=O)NCC(=O)N2CCN(c3cc(OCC(C)C)ncn3)CC2)n1` [Example 73, N-(2-(4-(6-isobutoxypyrimidin-4-yl)piperazin-1-yl)-2-oxoethyl)-6-methoxypicolinamide]: the 50% inhibitory concentration (IC50) was below 3 µM. For `CC(C)COc1cc(N2CCN(C(=O)COc3cccc4ncccc34)CC2)ncn1` [Example 78, 1-(4-(6-isobutoxypyrimidin-4-yl)piperazin-1-yl)-2-(quinolin-5-yloxy)ethanone], the IC50 is below 3 µM. Take `O=C(c1cnc2ccccc2n1)N1CCN(c2cc(OC3CCC3)ncn2)CC1` [Example 82, (4-(6-cyclobutoxypyrimidin-4-yl)piperazin-1-yl)(quinoxalin-2-yl)methanone]: the half-inhibitory concentration (IC50) is below 3 µM. Regarding `O=C(c1ccc2cccc(O)c2n1)N1CCN(c2cc(OC3CCC3)ncn2)CC1` [Example 83, (4-(6-cyclobutoxypyrimidin-4-yl)piperazin-1-yl)(8-hydroxyquinolin-2-yl)methanone], the IC50 is below 3 µM. As to `O=C(NCC(=O)N1CCN(c2cc(OC3CCC3)ncn2)CC1)c1ccccc1` [Example 85, N-(2-(4-(6-cyclobutoxypyrimidin-4-yl)piperazin-1-yl)-2-oxoethyl)benzamide], the IC50 is below 3 µM. With `Cc1cc(C(=O)N2CCN(c3cc(OCC(C)C)ncn3)CC2)nn1-c1ccccc1` [Example 91], the 50% inhibitory concentration (IC50) was below 3 µM.

In the case of `CC(C)COc1cc(N2CCN(C(=O)c3ccc(-c4cnco4)cc3)CC2)ncn1` [Example 92], the IC50 is below 3 µM.

With `CC(C)COc1cc(N2CCN(C(=O)c3ccc(-n4cccn4)cc3)CC2)ncn1` [Example 93, (4-(1H-pyrazol-1-yl)phenyl)(4-(6-isobutoxypyrimidin-4-yl)piperazin-1-yl)methanone], the 50% inhibitory concentration (IC50) is below 3 µM. Regarding `Cc1ccc(C(=O)N2C[C@@H]3C[C@H]2CN3c2cc(OCC(C)C)ncn2)cc1F` [Example 94, (3-fluoro-4-methylphenyl)((1S,4S)-5-(6-isobutoxypyrimidin-4-yl)-2,5-diazabicyclo[2.2.1]heptan-2-yl)methanone], the IC50 was below 3 µM. As to `CC(C)COc1cc(N2CCN(C(=O)COc3cccc(F)c3)CC2)ncn1` [Example 96, 2-(3-fluorophenoxy)-1-(4-(6-isobutoxypyrimidin-4-yl)piperazin-1-yl)ethanone], the IC50 is below 3 µM.

As to `CC(C)COc1cc(N2CCN(C(=O)COc3ccc(F)c(F)c3)CC2)ncn1` [Example 97, 2-(3,4-difluorophenoxy)-1-(4-(6-isobutoxypyrimidin-4-yl)piperazin-1-yl)ethanone], the IC50 was below 3 µM.

On to `CC(C)COc1cc(N2CCN(C(=O)CN3CCc4ccccc4C3=O)CC2)ncn1` [Example 98, 2-(2-(4-(6-isobutoxypyrimidin-4-yl)piperazin-1-yl)-2-oxoethyl)-3,4-dihydroisoquinolin-1(2H)-one], for which the IC50 is below 3 µM. Consider `CC(C)COc1cc(N2CCN(C(=O)Cc3cn(C)c4ccccc34)CC2)ncn1` [Example 101, 1-(4-(6-isobutoxypyrimidin-4-yl)piperazin-1-yl)-2-(1-methyl-1H-indol-3-yl)ethanone], for which the IC50 is below 3 µM. As to `CC(C)COc1cc(N2CCN(C(=O)COCc3ccccc3)CC2)ncn1` [Example 106, 2-(benzyloxy)-1-(4-(6-isobutoxypyrimidin-4-yl)piperazin-1-yl)ethanone], the IC50 is below 3 µM.

Broadly, the IC50 is the concentration needed to halve the response being measured.
